Source: US9968582B2, “Use of a benzoate containing composition in urea cycle disorders and neurodegenerative disorders” (Rush University Medical Center, priority 2014, dated 2018)

Assays:
DJ-1 [1] = test: MPTP mouse model of PD, Western blot of DJ-1 in the nigra; assay type: in vivo, mice; details: MPTP intoxication; FIG. 9A-B
Method: (§1) Six- to eight-week old C57BL/6 mice were purchased from Harlan (Indianapolis, Ind.). For acute MPTP intoxication, mice received four intraperitoneal (i.p.) injections of MPTP-HCl (18 mg/kg of free base; Sigma Chemical Co., St. Louis, Mo.) in saline at 2-h intervals. Control animals received only saline.
(§2) GTB was mixed in 0.5% methylcellulose (MC) and from 3 h after the last injection of MPTP, mice were gavaged 100 μL GTB-mixed MC once daily using gavage needle. Therefore, control MPTP mice received only MC as vehicle.
(§3) Immunoblot analysis for DJ-1 and TH was carried out. Briefly, cell homogenates were electrophoresed, proteins were transferred onto a nitrocellulose membrane, and bands were visualized with an Odyssey infrared scanner after immunolabeling with respective primary antibodies followed by infra-red fluorophore-tagged secondary antibody (Invitrogen).
Upregulation and/or maintenance of PD-related beneficial protein such as DJ-1 in the nigra during neurodegenerative insults may have therapeutic efficacy in PD.

[2] = system: dopamine (DA) in the striata; test: MPTP mouse model of PD, HPLC of striatal dopamine; assay type: in vivo, mice; details: MPTP intoxication compared to saline-injected control mice, 7 days; FIG. 10
Method: as §1, §2
Striatal level of dopamine was quantified in Complete Stand-Alone HPLC-ECD System EiCOMHTEC-500 (JM Science Inc., Grand Island, N.Y.). Briefly, mice were sacrificed by cervical dislocation after 7 days of MPTP intoxication and their striata were collected and immediately frozen in dry ice and stored at −80° C. until analysis. On the day of the analysis, tissues were sonicated in 0.2M perchloric acid containing isoproterenol and resulting homogenates were centrifuged at 20,000×g for 15 min at 4 C. After pH adjustment and filtration, 10 μl of supernatant was injected onto an Eicompak SC-3ODS column (Complete Stand-Alone HPLC-ECD System EiCOMHTEC-500 from JM Science Inc., Grand Island, N.Y.) and analyzed following the manufacturer's protocol.
Next, to determine whether GTB protects against biochemical deficits caused by MPTP, the inventor quantified levels of dopamine (DA) in the striata 7 days after the MPTP treatment. As evident from FIG. 10, MPTP intoxication led to about 75% decrease in striatal DA compared to striata of saline-injected control mice.

[3] = system: Tyrosine hydroxylase (TH); test: MPTP mouse model of PD, Western blot of nigral TH; assay type: in vivo, mice; details: MPTP intoxication compared with saline-injected controls; FIG. 9A-B
Method: as §1, §2, §3
Tyrosine hydroxylase (TH), the key enzyme responsible for the production of dopamine, is present in dopaminergic neurons. MPTP-intoxication led to approximately 60% loss of nigral TH (FIG. 9A-B) compared with saline-injected controls.

[4] = in vivo; cited from earlier work
BDNF = details: brain cells; cited from earlier work
NT-3 = details: brain cells; cited from earlier work
[5] = system: disease process of multiple sclerosis (MS) in mice; details: cited from earlier work
DJ-1 [6] = details: astrocytes and neurons (cited title); cited from earlier work

In the case of `CN1CC=C(c2ccccc2)CC1` [MPTP, reference compound], the “level of DJ-1 in the nigra” value (DJ-1 [1]) is reported as “decreased the level of DJ-1”, the “decrease in striatal DA” value [2] is reported as “about 75%” and the “loss of nigral TH” value [3] is reported as “approximately 60%”.
For `O=C([O-])c1ccccc1.[Na+]` [sodium benzoate], the metabolism and excretion [4] is given as “quickly metabolized and excreted from the body”, the “production of BDNF” value (BDNF) is given as “increases the production” and the “production of NT-3” value (NT-3) is given as “increases the production”. The “disease process of multiple sclerosis (MS)” value [5] was “suppresses the disease process” and the DJ-1 protein (DJ-1 [6]) was “up-regulates”.
